The values that follow are results of earlier work, collected in US20090311335A1, “COMBINATION OF A TRIPTAN AND AN NSAID” (priority 2008, published 2009).

The conditions of series [1]: single intravenous dose, range 5 to 60 mg.
For series [2] the following is noted: oral 75 mg or 150 mg, dual-release formulation.

On to `Cc1cnc(NC(=O)C2=C(O)c3ccccc3S(=O)(=O)N2C)s1` [Meloxicam, 4-hydroxy-2-methyl-N-(5-methyl-2-thiazolyl-)-2-H-1,2-benzothiazine-3-carboxamide 1,1-dioxide], for which the solubility in methanol result (methanol) is on record as “very slightly soluble”. The “solubility in strong acids and bases” value (strong acids and bases) is on record as “higher solubility”. In addition, the solubility in water entry (water) is recorded as “practically insoluble”. Besides, the “dose proportionality of pharmacokinetics” value in series [1] was “dose-proportional”.

`CC(C(=O)O)c1cccc(C(=O)c2ccccc2)c1` (centres unmarked) [ketoprofen]: in series [2], the “efficacy and tolerability in acute treatment of migraine attacks” value was “effective and well-tolerated”.
